Read-outs that look alike come from different tables or passages of the source.
Experiments:
CYP1A2 [1] = assay: CYP1A2 enzyme induction assay in cryopreserved HepaRG cells (phenacetin probe, LC/MS); type: in vitro ADME, human; details: for Assigned classification CYP1A2: HepaRG; for Assigned classification CYP1A2: key: 1=Positive=inducer; 0=Negative=non-inducer
CYP2B6 [2] = assay: CYP2B6 enzyme induction assay in cryopreserved HepaRG cells (bupropion probe, LC/MS); type: in vitro ADME, human; details: for Prediction in vivo inducer: Cmax/F2 >0.5 criterion; for Assigned classification CYP2B6: HepaRG; for Assigned classification CYP2B6: key: 1=Positive=inducer; 0=Negative=non-inducer
CYP3A4 [3] = assay: CYP3A4 enzyme induction assay in cryopreserved HepaRG cells (midazolam probe, LC/MS); type: in vitro ADME, human; details: for Assigned classification CYP3A4: HepaRG; for Assigned classification CYP3A4: key: 1=Positive=inducer; 0=Negative=non-inducer
CYP1A2 [4] = assay: CYP1A2 enzyme induction assay in cryopreserved primary human hepatocytes (PHH); type: in vitro ADME; details: for Prediction in vivo inducer: Cmax/F2 >0.5 criterion; for Assigned classification CYP1A2: PHH;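 for Assigned classification CYP1A2: code 1 means positive inducer and 0 means non-inducer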
CYP2B6 [5] = assay: CYP2B6 enzyme induction assay in cryopreserved primary human hepatocytes (PHH); type: in vitro ADME; details: for Assigned classification CYP2B6: PHH;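 for Assigned classification CYP2B6: code 1 means positive inducer and 0 means non-inducer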
[6] = Solubility by visual inspection (DMSO stock solution and assay medium); type: physicochemical; details: assay medium
Experimental: The SOPs relied on visual inspection for solubility observation. […] The absence of precipitation in the medium was checked pre- and post-incubation (24 hours) by centrifugation of the sample and observation of any precipitation (pellet residue).

[7] = Solubility by nephelometry (EURL ECVAM); type: physicochemical
Source text: In addition to the visual inspection performed by the validation laboratories as described in the SOP, EURL ECVAM introduced nephelometry for systematic solubility determination of the 13 validation set chemicals. Nephelometry uses a laser beam and the principle of Tyndall effect light scatter to detect turbidity due to insolubility. The nephelometer method used formazin as reference item (1, 5, 10 and 20 nephelometric turbidity units (NTU)) to calculate the relative turbidity (RTU) of the validation set of chemicals. To the naked eye, 20 NTU is perceptible, while the nephelometer was sensitive to 5 NTU, with 1 NTU equivalent to background (solvent/medium blank).

CYP1A2 [8] = details: cited from earlier work
[9] = cited from earlier work
CYP = CYP isoforms induced; ref Abadie et al. (2009), Richert et al. (2010), Preissner et al. (2010), Hoffmann et al. (2014); cited from earlier work
CYP2B6 [10] = details: cited from earlier work
CYP3A4 [11] = details: cited from earlier work
CYP3A4 [12] = assay: CYP3A4 enzyme induction assay in cryopreserved primary human hepatocytes (PHH); details: for Assigned classification CYP3A4: PHH
[13] = human in vivo, CYP named without remark = induced, ref references in the cell, Washington University database, Hoffmann et al. (2014), Pelkonen et al. (2008), Hukkanen et al. (2012)

O=C1NC(=O)C(c2ccccc2)(c2ccccc2)N1 [Phenytoin sodium]
Prediction in vivo inducer (CYP1A2 [1]; CYP1A2, HepaRG cells, Cmax/F2 >0.5 criterion): Yes
F2 (CYP1A2 [1]; CYP1A2, HepaRG cells, in vitro concentration producing 2-fold induction): 36.5 µM
Induction in vitro (CYP1A2 [1]; CYP1A2, HepaRG cells, positive in one batch in each of the three laboratories): Yes
Assigned classification CYP1A2 (CYP1A2 [1]; Lab 1, batch 20): 1
Assigned classification CYP1A2 (CYP1A2 [1]; Lab 1, batch 35): 1
Assigned classification CYP1A2 (CYP1A2 [1]; Lab 1, batch 36): 1
Assigned classification CYP1A2 (CYP1A2 [1]; Lab 2, batch 20): 1
Assigned classification CYP1A2 (CYP1A2 [1]; Lab 2, batch 35): 1
Assigned classification CYP1A2 (CYP1A2 [1]; Lab 2, batch 36): 1
Assigned classification CYP1A2 (CYP1A2 [1]; Lab 3, batch 20): 1
Assigned classification CYP1A2 (CYP1A2 [1]; Lab 3, batch 35): 0
Assigned classification CYP1A2 (CYP1A2 [1]; Lab 3, batch 36): 1
Prediction in vivo inducer (CYP2B6 [2]; CYP2B6, HepaRG cells, listed as Phenytoin): Yes
Prediction in vivo inducer (CYP2B6 [2]; CYP2B6, HepaRG cells, listed as phenytoin): correctly classified
F2 (CYP2B6 [2]; CYP2B6, HepaRG cells, in vitro concentration producing 2-fold induction): 1.35 µM
Induction in vitro (CYP2B6 [2]; CYP2B6, HepaRG cells, positive in one batch in each of the three laboratories): Yes
Assigned classification CYP2B6 (CYP2B6 [2]; Lab 1, batch 20): 1
Assigned classification CYP2B6 (CYP2B6 [2]; Lab 1, batch 35): 1
Assigned classification CYP2B6 (CYP2B6 [2]; Lab 1, batch 36): 1
Assigned classification CYP2B6 (CYP2B6 [2]; Lab 2, batch 20): 1
Assigned classification CYP2B6 (CYP2B6 [2]; Lab 2, batch 35): 1
Assigned classification CYP2B6 (CYP2B6 [2]; Lab 2, batch 36): 1
Assigned classification CYP2B6 (CYP2B6 [2]; Lab 3, batch 20): 1
Assigned classification CYP2B6 (CYP2B6 [2]; Lab 3, batch 35): 1
Assigned classification CYP2B6 (CYP2B6 [2]; Lab 3, batch 36): 1
F2 (CYP3A4 [3]; CYP3A4, HepaRG cells): 12.2 µM
Induction in vitro (CYP3A4 [3]; CYP3A4, HepaRG cells): Yes
Prediction in vivo inducer (CYP3A4 [3]; CYP3A4, HepaRG cells): Yes
Assigned classification CYP3A4 (CYP3A4 [3]; Lab 1, batch 20): 1
Assigned classification CYP3A4 (CYP3A4 [3]; Lab 1, batch 35): 1
Assigned classification CYP3A4 (CYP3A4 [3]; Lab 1, batch 36): 1
Assigned classification CYP3A4 (CYP3A4 [3]; Lab 2, batch 20): 1
Assigned classification CYP3A4 (CYP3A4 [3]; Lab 2, batch 35): 1
Assigned classification CYP3A4 (CYP3A4 [3]; Lab 2, batch 36): 1
Assigned classification CYP3A4 (CYP3A4 [3]; Lab 3, batch 20): 1
Assigned classification CYP3A4 (CYP3A4 [3]; Lab 3, batch 35): 1
Assigned classification CYP3A4 (CYP3A4 [3]; Lab 3, batch 36): 1
Prediction in vivo inducer (CYP1A2 [4]; CYP1A2, PHH, listed as Phenytoin): Yes
Prediction in vivo inducer (CYP1A2 [4]; CYP1A2, PHH, listed as phenytoin): correctly predicted CYP1A2 induction
F2 (CYP1A2 [4]; CYP1A2, PHH, in vitro concentration producing 2-fold induction): 16.2 to 48.6 µM
Induction in vitro (CYP1A2 [4]; CYP1A2, PHH, positive in one donor in each of the three laboratories): Yes
Assigned classification CYP1A2 (CYP1A2 [4]; Lab 1, batch 0 6 A): 1
Assigned classification CYP1A2 (CYP1A2 [4]; Lab 1, batch 4 0 8): 0
Assigned classification CYP1A2 (CYP1A2 [4]; Lab 1, batch 8 0 8): 0
Assigned classification CYP1A2 (CYP1A2 [4]; Lab 2, batch 0 6 A): 1
Assigned classification CYP1A2 (CYP1A2 [4]; Lab 2, batch 4 0 8): 0
Assigned classification CYP1A2 (CYP1A2 [4]; Lab 2, batch 8 0 8): 0
Assigned classification CYP1A2 (CYP1A2 [4]; Lab 3, batch 0 6 A): 1
Assigned classification CYP1A2 (CYP1A2 [4]; Lab 3, batch 4 0 8): 1
Assigned classification CYP1A2 (CYP1A2 [4]; Lab 3, batch 8 0 8): 0
F2 (CYP2B6 [5]; CYP2B6, PHH): 0.60 to 48.6 µM
Induction in vitro (CYP2B6 [5]; CYP2B6, PHH): Yes
Prediction in vivo inducer (CYP2B6 [5]; CYP2B6, PHH): Yes
Prediction in vivo inducer (CYP2B6 [5]; CYP2B6, PHH, Cmax/F2 >0.5 criterion): positive
Assigned classification CYP2B6 (CYP2B6 [5]; Lab 1, batch 0 6 A): 1
Assigned classification CYP2B6 (CYP2B6 [5]; Lab 1, batch 4 0 8): 1
Assigned classification CYP2B6 (CYP2B6 [5]; Lab 1, batch 8 0 8): 0
Assigned classification CYP2B6 (CYP2B6 [5]; Lab 2, batch 0 6 A): 1
Assigned classification CYP2B6 (CYP2B6 [5]; Lab 2, batch 4 0 8): 1
Assigned classification CYP2B6 (CYP2B6 [5]; Lab 2, batch 8 0 8): 0
Assigned classification CYP2B6 (CYP2B6 [5]; Lab 3, batch 0 6 A): 1
Assigned classification CYP2B6 (CYP2B6 [5]; Lab 3, batch 4 0 8): 1
Assigned classification CYP2B6 (CYP2B6 [5]; Lab 3, batch 8 0 8): 1
HepaRG medium stability ([6]; Lab 1, visual observation): 40 µg/mL
HepaRG medium stability ([6]; Lab 2, visual observation): 20 µg/mL
HepaRG medium stability ([6]; Lab 3, visual observation): 40 µg/mL
PHH medium stability ([6]; Lab 4, visual observation): 40 µg/mL
PHH medium stability ([6]; Lab 5, visual observation): 20 µg/mL
PHH medium stability ([6]; Lab 6, visual observation): 10 µg/mL
nephelometry finding in assay medium ([7]; 40 μg/ml, the two media): insoluble suspensions
HepaRG medium stability ([7]; ECVAM nephelometry, HepaRG medium, ^2 = solubility limit): 40 µg/mL
PHH medium stability ([7]; ECVAM nephelometry, PHH medium, ^2 = solubility limit): 20 µg/mL
Induction in vivo (CYP1A2 [8]; CYP1A2, human, ref Table 1): Yes
CYP induction in vivo literature reference: CYP1A2 (CYP1A2 [8]; [13]): CYP1A2
Cmax ([9]; human in vivo plasma concentration, normal dose): 40 to 80 µM
Cmax ([9]; human in vivo, normal dose (Table 10)): 40 to 80 µM
CYP induction in vitro (human hepatocytes) (CYP): CYP1A2, CYP2B6, CYP3A4
Induction in vivo (CYP2B6 [10]; CYP2B6, human in vivo reference classification): Yes
Induction in vivo (CYP2B6 [10]; CYP2B6, human, ref Table 1): Yes
CYP induction in vivo literature reference: CYP2B6 (CYP2B6 [10]; [13]): CYP2B6
Induction in vivo (CYP3A4 [11]; CYP3A4, human in vivo reference classification (Table 11)): Yes
CYP induction in vivo literature reference: CYP3A4 (CYP3A4 [11]; [13]): CYP3A4
F2 (CYP3A4 [12]; CYP3A4, PHH): 1.80 to 16.2 µM
Induction in vitro (CYP3A4 [12]; CYP3A4, PHH): Yes
Prediction in vivo inducer (CYP3A4 [12]; CYP3A4, PHH): Yes
Assigned classification CYP3A4 (CYP3A4 [12]; Lab 1, batch 0 6 A): 1
Assigned classification CYP3A4 (CYP3A4 [12]; Lab 1, batch 4 0 8): 0
Assigned classification CYP3A4 (CYP3A4 [12]; Lab 1, batch 8 0 8): 1
Assigned classification CYP3A4 (CYP3A4 [12]; Lab 2, batch 0 6 A): 1
Assigned classification CYP3A4 (CYP3A4 [12]; Lab 2, batch 4 0 8): 1
Assigned classification CYP3A4 (CYP3A4 [12]; Lab 2, batch 8 0 8): 1
Assigned classification CYP3A4 (CYP3A4 [12]; Lab 3, batch 0 6 A): 1
Assigned classification CYP3A4 (CYP3A4 [12]; Lab 3, batch 4 0 8): 1
Assigned classification CYP3A4 (CYP3A4 [12]; Lab 3, batch 8 0 8): 1

— PMC6718736, “Validation of in vitro methods for human cytochrome P450 enzyme induction: Outcome of a multi-laboratory study” (Toxicology in Vitro, 2019)
